ChEMBL document CHEMBL3045535, “Evaluation of lufenuron as a chemosterilant against fruit flies of the genus Anastrepha (Diptera: Tephritidae)” (2010)
Activity calls are given as the source filed them. The calls are words filed in the database; no cut-off is given here.

What was measured:
Anastrepha obliqua [1] = test: Reduction of fertility in 7 days old adult of Anastrepha obliqua assessed as reduction of egg hatching at 5 mg/g treated with diet measured after 9 days oviposition; type: functional; parameters: scale not given: the % may be the effect or the level left
Anastrepha obliqua [2] = test: Reduction of fertility in 7 days old adult of Anastrepha obliqua assessed as reduction of egg hatching at 5 mg/g treated with diet measured after 11 days oviposition; type: functional; parameters: scale not given: the % may be the effect or the level left
Anastrepha obliqua [3] = test: Reduction of fertility in 7 days old adult of Anastrepha obliqua assessed as reduction of egg hatching at 0.5 mg/g treated with diet measured after 5 days oviposition; type: functional; parameters: scale not given: the % may be the effect or the level left
Anastrepha ludens [4] = test: Reduction of fertility in 7 days old adult of Anastrepha ludens assessed as reduction of egg hatching at 5 mg/g treated with diet measured after 3 days oviposition; type: functional; parameters: scale not given: the % may be the effect or the level left
Anastrepha striata [5] = test: Reduction of fertility in 7 days old adult of Anastrepha striata assessed as reduction of egg hatching at 0.1 mg/g treated with diet measured after 7 days oviposition; type: functional; parameters: scale not given: the % may be the effect or the level left
Anastrepha obliqua [6] = test: Reduction of fertility in 7 days old adult of Anastrepha obliqua assessed as reduction of egg hatching at 1 mg/g treated with diet measured after 1 day oviposition; type: functional; parameters: scale not given: the % may be the effect or the level left
Anastrepha obliqua [7] = test: Effect on fecundity in 7 days old adult male of Anastrepha obliqua at 30 mg/g treated with diet after 24 hr in presence of untreated adult female of Anastrepha obliqua; type: functional, organism-based
Anastrepha striata [8] = test: Reduction of fertility in 7 days old adult of Anastrepha striata assessed as reduction of egg hatching at 1 mg/g treated with diet measured after 11 days oviposition; type: functional; parameters: scale not given: the % may be the effect or the level left
Anastrepha serpentina [9] = test: Reduction of fertility in 7 days old adult of Anastrepha serpentina assessed as reduction of egg hatching at 1 mg/g treated with diet measured after 7 days oviposition; type: functional; parameters: scale not given: the % may be the effect or the level left
Anastrepha serpentina [10] = test: Reduction of fertility in 7 days old adult of Anastrepha serpentina assessed as reduction of egg hatching at 1 mg/g treated with diet measured after 9 days oviposition; type: functional; parameters: scale not given: the % may be the effect or the level left
Anastrepha serpentina [11] = test: Reduction of fertility in 7 days old adult of Anastrepha serpentina assessed as reduction of egg hatching at 30 mg/g treated with diet measured after 9 days oviposition; type: functional; parameters: scale not given: the % may be the effect or the level left
Anastrepha serpentina [12] = test: Reduction of fertility in 7 days old adult of Anastrepha serpentina assessed as reduction of egg hatching at 30 mg/g treated with diet measured after 7 days oviposition; type: functional; parameters: scale not given: the % may be the effect or the level left
Anastrepha obliqua [13] = test: Reduction of fertility in 7 days old adult of Anastrepha obliqua assessed as reduction of egg hatching at 1 mg/g treated with diet measured after 11 days oviposition; type: functional; parameters: scale not given: the % may be the effect or the level left
Anastrepha striata [14] = test: Reduction of fertility in 7 days old adult of Anastrepha striata assessed as reduction of egg hatching at 0.5 mg/g treated with diet measured after 9 days oviposition; type: functional; parameters: scale not given: the % may be the effect or the level left
Anastrepha ludens [15] = test: Reduction of fertility in 7 days old adult of Anastrepha ludens assessed as reduction of egg hatching at 0.5 mg/g treated with diet measured after 1 day oviposition; type: functional; parameters: scale not given: the % may be the effect or the level left
Anastrepha ludens [16] = test: Reduction of fertility in 7 days old adult of Anastrepha ludens assessed as reduction of egg hatching at 0.1 mg/g treated with diet measured after 11 days oviposition; type: functional; parameters: scale not given: the % may be the effect or the level left
Anastrepha serpentina [17] = test: Reduction of fertility in 7 days old adult of Anastrepha serpentina assessed as reduction of egg hatching at 0.5 mg/g treated with diet measured after 5 days oviposition; type: functional; parameters: scale not given: the % may be the effect or the level left
Anastrepha ludens [18] = test: Reduction of fertility in 7 days old adult of Anastrepha ludens assessed as reduction of egg hatching at 10 mg/g treated with diet measured after 5 days oviposition; type: functional; parameters: scale not given: the % may be the effect or the level left
Anastrepha serpentina [19] = test: Reduction of fertility in 7 days old adult of Anastrepha serpentina assessed as reduction of egg hatching at 0.1 mg/g treated with diet measured after 5 days oviposition; type: functional; parameters: scale not given: the % may be the effect or the level left
Anastrepha striata [20] = test: Reduction of fertility in 7 days old adult of Anastrepha striata assessed as reduction of egg hatching at 10 mg/g treated with diet measured after 3 days oviposition; type: functional; parameters: scale not given: the % may be the effect or the level left
Anastrepha striata [21] = test: Reduction of fertility in 7 days old adult of Anastrepha striata assessed as reduction of egg hatching at 0.5 mg/g treated with diet measured after 7 days oviposition; type: functional; parameters: scale not given: the % may be the effect or the level left
Anastrepha ludens [22] = test: Reduction of fertility in 7 days old adult of Anastrepha ludens assessed as reduction of egg hatching at 1 mg/g treated with diet measured after 7 days oviposition; type: functional; parameters: scale not given: the % may be the effect or the level left
Anastrepha serpentina [23] = test: Reduction of fertility in 7 days old adult of Anastrepha serpentina assessed as reduction of egg hatching at 10 mg/g treated with diet measured after 7 days oviposition; type: functional; parameters: scale not given: the % may be the effect or the level left
Anastrepha ludens [24] = test: Reduction of fertility in 7 days old adult of Anastrepha ludens assessed as reduction of egg hatching at 1 mg/g treated with diet measured after 3 days oviposition; type: functional; parameters: scale not given: the % may be the effect or the level left
Anastrepha striata [25] = test: Effect on fertility in 7 days old adult male of Anastrepha striata at 30 mg/g treated with diet after 24 hr in presence of untreated adult female of Anastrepha striata; type: functional, organism-based
Anastrepha serpentina [26] = test: Effect on fecundity in 7 days old adult female of Anastrepha serpentina at 30 mg/g treated with diet after 24 hr in presence of untreated adult male of Anastrepha serpentina; type: functional, organism-based
Anastrepha obliqua [27] = test: Effect on fertility in 7 days old adult male of Anastrepha obliqua at 30 mg/g treated with diet after 24 hr in presence of untreated adult female of Anastrepha obliqua; type: functional, organism-based
Anastrepha striata [28] = test: Reduction of fertility in 7 days old adult of Anastrepha striata assessed as reduction of egg hatching at 0.5 mg/g treated with diet measured after 1 day oviposition; type: functional; parameters: scale not given: the % may be the effect or the level left
Anastrepha serpentina [29] = test: Reduction of fertility in 7 days old adult of Anastrepha serpentina assessed as reduction of egg hatching at 5 mg/g treated with diet measured after 7 days oviposition; type: functional; parameters: scale not given: the % may be the effect or the level left
Anastrepha obliqua [30] = test: Reduction of fertility in 7 days old adult of Anastrepha obliqua assessed as reduction of egg hatching at 10 mg/g treated with diet measured after 3 days oviposition; type: functional; parameters: scale not given: the % may be the effect or the level left
Anastrepha obliqua [31] = test: Reduction of fertility in 7 days old adult of Anastrepha obliqua assessed as reduction of egg hatching at 30 mg/g treated with diet measured after 11 days oviposition; type: functional; parameters: scale not given: the % may be the effect or the level left
Anastrepha obliqua [32] = test: Reduction of fertility in 7 days old adult of Anastrepha obliqua assessed as reduction of egg hatching at 0.5 mg/g treated with diet measured after 11 days oviposition; type: functional; parameters: scale not given: the % may be the effect or the level left
Anastrepha striata [33] = test: Reduction of fertility in 7 days old adult of Anastrepha striata assessed as reduction of egg hatching at 10 mg/g treated with diet measured after 9 days oviposition; type: functional; parameters: scale not given: the % may be the effect or the level left
Anastrepha striata [34] = test: Reduction of fertility in 7 days old adult of Anastrepha striata assessed as reduction of egg hatching at 10 mg/g treated with diet measured after 11 days oviposition; type: functional; parameters: scale not given: the % may be the effect or the level left
Anastrepha obliqua [35] = test: Reduction of fertility in 7 days old adult of Anastrepha obliqua assessed as reduction of egg hatching at 0.1 mg/g treated with diet measured after 3 days oviposition; type: functional; parameters: scale not given: the % may be the effect or the level left
Anastrepha striata [36] = test: Reduction of fertility in 7 days old adult of Anastrepha striata assessed as reduction of egg hatching at 5 mg/g treated with diet measured after 1 day oviposition; type: functional; parameters: scale not given: the % may be the effect or the level left
Anastrepha striata [37] = test: Reduction of fertility in 7 days old adult of Anastrepha striata assessed as reduction of egg hatching at 5 mg/g treated with diet measured after 7 days oviposition; type: functional; parameters: scale not given: the % may be the effect or the level left
Anastrepha ludens [38] = test: Reduction of fertility in 7 days old adult of Anastrepha ludens assessed as reduction of egg hatching at 5 mg/g treated with diet measured after 1 day oviposition; type: functional; parameters: scale not given: the % may be the effect or the level left
Anastrepha obliqua [39] = test: Reduction of fertility in 7 days old adult of Anastrepha obliqua assessed as reduction of egg hatching at 5 mg/g treated with diet measured after 1 day oviposition; type: functional; parameters: scale not given: the % may be the effect or the level left
Anastrepha striata [40] = test: Reduction of fertility in 7 days old adult of Anastrepha striata assessed as reduction of egg hatching at 30 mg/g treated with diet measured after 9 days oviposition; type: functional; parameters: scale not given: the % may be the effect or the level left

`O=C(NC(=O)c1c(F)cccc1F)Nc1cc(Cl)c(OC(F)(F)C(F)C(F)(F)F)cc1Cl` (racemic) [LUFENURON] showed an Activity (Anastrepha obliqua [1]) of 0.7%, an Activity (Anastrepha obliqua [2]) of 0% and an Activity (Anastrepha obliqua [3]) of 0%. The Activity (Anastrepha ludens [4]) was 16%, the Activity (Anastrepha striata [5]) was 72% and the Activity (Anastrepha obliqua [6]) was 0%. For the same molecule, the Activity (Anastrepha obliqua [7]) was “inactive”, the Activity (Anastrepha striata [8]) was 8.7% and the Activity (Anastrepha serpentina [9]) was 92.5%. For the same molecule, the Activity (Anastrepha serpentina [10]) was 95.6%, the Activity (Anastrepha serpentina [11]) was 76.7% and the Activity (Anastrepha serpentina [12]) was 54.2%. For the same molecule, the Activity (Anastrepha obliqua [13]) was 0.7%, the Activity (Anastrepha striata [14]) was 40.7% and the Activity (Anastrepha ludens [15]) was 8.7%. It also gave an Activity (Anastrepha ludens [16]) of 66.7%, an Activity (Anastrepha serpentina [17]) of 93.3% and an Activity (Anastrepha ludens [18]) of 2.7%. For the same molecule, the Activity (Anastrepha serpentina [19]) was 74.6%, the Activity (Anastrepha striata [20]) was 10.7% and the Activity (Anastrepha striata [21]) was 19.3%. The Activity (Anastrepha ludens [22]) was 20%, the Activity (Anastrepha serpentina [23]) was 65.8% and the Activity (Anastrepha ludens [24]) was 9.3%. For the same molecule, the Activity (Anastrepha striata [25]) was “inactive”, the Activity (Anastrepha serpentina [26]) was “inactive” and the Activity (Anastrepha obliqua [27]) was “inactive”. It also gave an Activity (Anastrepha striata [28]) of 13.3%, an Activity (Anastrepha serpentina [29]) of 96.7% and an Activity (Anastrepha obliqua [30]) of 1.3%. For the same molecule, the Activity (Anastrepha obliqua [31]) was 2%, the Activity (Anastrepha obliqua [32]) was 4% and the Activity (Anastrepha striata [33]) was 6%. It also gave an Activity (Anastrepha striata [34]) of 6%, an Activity (Anastrepha obliqua [35]) of 7.3% and an Activity (Anastrepha striata [36]) of 3.3%. It also gave an Activity (Anastrepha striata [37]) of 0.7%, an Activity (Anastrepha ludens [38]) of 19.3% and an Activity (Anastrepha obliqua [39]) of 1.3%. For the same molecule, the Activity (Anastrepha striata [40]) was 7.3%.
